Values joined by “and” are separate entries in the source; they are usually repeats but may differ in a detail not shown here. Identical values can stand only once. “Also recorded” adds a separate entry of the source. Like-named read-outs stand apart in the source and are kept apart here.
Columns and labels:
NALM 6 cells [1] = assay: Migration (chemotaxis) of NALM 6 pre-B ALL cells; format: cell-based, human; settings: for Number of cells at 40 μm from origin: cells preincubated with mAb (MET-ENK line: buffer, alone); for cell counts, migration to MET-ENK without naloxone: spontaneous 1647
LAZ 221 cells = assay: Migration (chemotaxis) of LAZ 221 pre-B ALL cells; format: cell-based, human; settings: LAZ 221, peptide 100 nM; spontaneous locomotion 1886
LAZ 388 cells [2] = assay: Migration (chemotaxis) of LAZ 388 EBV-transformed B cells; format: cell-based, human
NALM 6 cells [3] = assay: Flow cytometry of surface molecule expression on NALM 6 cells; format: cell-based, human; settings: for surface expression of CD9: NALM 6 / pre-B ALL cells
Protocol: NALM 6 cells (10^6 /ml) were incubated at 37° with MET-ENK (10^-7 M) for 0 (Panel A and B) or 30 minutes (Panel C and D). Cells were then transferred to an ice bath, pelleted by centrifugation, and stained for immunofluorescent analysis and flow cytoflourimetry. Data are shown as histograms depicting the distribution of 10,000 cells labeled with anti-CD9 (Panel A and C) or CD-10 (Panel B and D) mAb. The anti-CD9 and anti-CD10 mAb used for these experiments were isotype matched (IgG1).
FIG. 4, Panels A-C. […] Data are presented as mean fluorescence intensities measured for 10,000 cells labeled with anti-CD9 or CD10 mAb. In Panel A, the NALM 6 Cells were incubated with MET-ENK (10^-7 M) for the times indicated. In Panel B, the LAZ 221 cells were incubated with MET-ENK at the doses indicated for 5 minutes at 37° C. […] The anti-CD9 and anti-CD10 mAb used for these experiments were of the IgG2a isotype.
(§1) Immunofluorescence Staining and Flow Cytometric Analysis of Cell Surface Molecules: Cells were resuspended at 1×10^6 /ml in PBS and then incubated for periods of 5 to 120 minutes at 37° C. with MET-ENK at doses of 0 to 10^-5 M. Incubations were terminated by transferring samples to an ice bath and then pelleting the cells by centrifugation at 1800 rpm for 5 minutes at 4° C.
(§2) Immunofluorescence staining was carried out in 4-ml tubes maintained in an ice water bath. […] Cells were subsequently fixed within a 2% solution of formalin and maintained in the dark at 10° C. until analyzed.
(§3) Flow cytometric analysis was performed using a FACS SCAN Flow Cytometer (Becton Dickinson, Mountain View, Calif.) equipped with a HP9000 Series computer and the Lysys System software analysis package. Data were collected as histograms depicting the fluorescence intensity for 5,000 to 10,000 cells per sample.
(§4) The non-binding IgG1 MOPC myeloma protein, anti-macrophage/monocyte specific CD14 (MO2; IgG2) and anti-T cell specific CD3 (OKT3; IgG2a) mAb were employed as nonreactive controls for measuring the autofluorescence of B cells.

LAZ 388 cells [4] = assay: Flow cytometry of surface molecule expression on LAZ 388 cells; format: cell-based, human
Protocol: as §1, §2, §3, §4

Jurkat cells = assay: MET-ENK-FITC binding to Jurkat cells (flow cytometry, Scatchard); design: species or system human
NALM 6 cells [5] = assay: cAMP accumulation in NALM 6 cells; format: cell-based, human; settings: forskolin-activated NALM 6
Protocol: FIG. 16. […] NALM 6 cells (2×10^6 /ml) were stimulated with forskolin or forskolin+MET-ENK at the concentrations indicated and in the presence of 1 mM isobutyl-1-methylxanthine. Cyclic AMP was assayed after 15 minutes at 37° C. Data are expressed as fmoles of cAMP/minute. Samples were processed as previously described Cobb, Heagy, Dunner et al., 1980; cAMP was measured using a commercial RIA kit.

COS (Vector Control) = assay: cAMP accumulation in COS cells (vector control); format: cell-based, monkey
human T cells = assay: Migration of human peripheral blood T cells; format: cell-based
[6] = tested on: lymphocytes and macrophages; settings: cited from earlier work
T cells = settings: literature; cited from earlier work
lymphocytes = settings: infusion into afferent lymphatics, sheep; cited from earlier work
NK cells and lymphocytes = settings: literature; cited from earlier work
[7] = NALM 6, 10^-7 M MET-ENK, untreated 1.0
[8] = NALM 6, 10^-7 M MET-ENK, untreated 1.1
[9] = NALM 6, 10^-7 M MET-ENK, untreated 1.8
[10] = listed as Methionine-enkephalin
[11] = LAZ 388, 10^-7 M MET-ENK, untreated 1.0
[12] = LAZ 388, 10^-7 M MET-ENK, untreated 11.4

Structure (SMILES): CSCC[C@H](NC(=O)[C@H](Cc1ccccc1)NC(=O)CNC(=O)CNC(=O)[C@@H](N)Cc1ccc(O)cc1)C(=O)O [MET-ENK, Tyr-Gly-Gly-Phe-Met]
- Number of cells at 40 μm from origin (NALM 6 cells [1]; MET-ENK 0.01 nM): 238
- cell counts, migration to MET-ENK without naloxone (NALM 6 cells [1]; MET-ENK 1 nM): 2925 cell counts
- Number of cells at 40 μm from origin (NALM 6 cells [1]; MET-ENK 1.0 nM): 407
- cell counts, migration to MET-ENK without naloxone (NALM 6 cells [1]; MET-ENK 100 nM): 3492 cell counts
- Number of cells at 40 μm from origin (NALM 6 cells [1]; MET-ENK 100 nM): 637
- cell migration (cell counts) (NALM 6 cells [1]; NALM 6, peptide 100 nM, spontaneous locomotion 2190): 6952 cell counts
- effect on migration of pre-B ALL cells (NALM 6 cells [1]; NALM 6 and LAZ 221 cells): potent stimulus for the migration of NALM 6 and LAZ 221 (pre-B ALL) but not LAZ 388 (EBV-transformed) cells
- concentration at which effect on migration is detected (NALM 6 cells [1]; NALM 6 and LAZ 221 pre-B ALL cells): ≤ 10 pM
- cell migration (cell counts) (LAZ 221 cells): 6199 cell counts
- cell migration (cell counts) (LAZ 388 cells [2]; LAZ 388, peptide 100 nM, spontaneous locomotion 1938): 1986 cell counts
- migration of LAZ 388 cells (LAZ 388 cells [2]; LAZ 388 vs spontaneous locomotion): equivalent to their spontaneous locomotion
- duration of enhanced CD9 expression (NALM 6 cells [3]; MET-ENK 10^-7 M): 60 min
- time of decline of CD9 expression to near baseline (NALM 6 cells [3]; MET-ENK 10^-7 M): 120 min
- incubation time causing increase in CD9 expression (NALM 6 cells [3]; MET-ENK 10^-7 M, pre-B ALL cells): ≤ 10 min
- staining for β-1 integrins, MET-ENK treated vs not (NALM 6 cells [3]; NALM 6): equivalent on NALM 6 cells incubated with (+) or without (-) MET-ENK
- CD11b (Mac 1) fluorescence ratio (mAb/isotype control) (NALM 6 cells [3]; NALM 6, 10^-7 M MET-ENK 30 min, untreated 1.0): 1.1
- CD4 fluorescence ratio (NALM 6 cells [3]; [7]): 1.0
- CD44 (homing receptor) fluorescence ratio (NALM 6 cells [3]; [7]): 2.2
- CD49b (VLA-α2 chain) fluorescence ratio (NALM 6 cells [3]; [7]): 0.9
- CD58 (LFA-3) fluorescence ratio (NALM 6 cells [3]; [7]): 0.9
- CD18 (Integrin β chain) fluorescence ratio (NALM 6 cells [3]; [8]): 1.4
- CD45 (T200) fluorescence ratio (NALM 6 cells [3]; [8]): 1.0
- VLA-1 fluorescence ratio (NALM 6 cells [3]; [8]): 0.6
- VLA-3 fluorescence ratio (NALM 6 cells [3]; [8]): 0.7
- CD20 fluorescence ratio (NALM 6 cells [3]; NALM 6, 10^-7 M MET-ENK, untreated 1.5): 1.3
- CD72 fluorescence ratio (NALM 6 cells [3]; NALM 6, 10^-7 M MET-ENK, untreated 1.6): 2.8
- CD23 fluorescence ratio (NALM 6 cells [3]; [9]): 1.6
- CD49f (VLA-α6 chain) fluorescence ratio (NALM 6 cells [3]; [9]): 1.3
- CD22 fluorescence ratio (NALM 6 cells [3]; NALM 6, 10^-7 M MET-ENK, untreated 2.3): 3.1
- CD49d (VLA-α4 chain) fluorescence ratio (NALM 6 cells [3]; NALM 6, 10^-7 M MET-ENK, untreated 3.9): 4.4
- VLA-5 fluorescence ratio (NALM 6 cells [3]; NALM 6, 10^-7 M MET-ENK, untreated 5.2): 4.9
- CD29 (VLA-β chain) fluorescence ratio (NALM 6 cells [3]; NALM 6, 10^-7 M MET-ENK, untreated 8.4): 9.3
- CD54 (ICAM-1) fluorescence ratio (NALM 6 cells [3]; NALM 6, 10^-7 M MET-ENK, untreated 9.3): 10.5
- VLA-β; DE9N fluorescence ratio (NALM 6 cells [3]; NALM 6, 10^-7 M MET-ENK, untreated 13.6): 13.8
- surface expression of CD10 (NALM 6 cells [3]; NALM 6 / LAZ 221): no effect on CD10 expression
- surface expression of CD9 (NALM 6 cells [3]): upregulation of CD9; also recorded: transient increase in their surface expression of CD9 but not CD10 molecules
- surface expression of CD9 (NALM 6 cells [3]; [10]): discrete, transient up-regulation in the CD9 molecules; also recorded: rapid and dose-dependentincrease in the CD9 but not CD10 molecules
- CD9 expression, cells in ice water bath (NALM 6 cells [3]; ice water bath, data not shown): had no effect when they were maintained in an ice water bath
- CD11a, CD18, CD54 expression, MET-ENK treated vs not (LAZ 388 cells [4]; LAZ 388): equivalent for the MET-ENK-treated (+) and nontreated (-) cells
- CD2 (LFA-2) fluorescence ratio (LAZ 388 cells [4]; [11]): 0.9
- CD49b (VLA-α2 chain) fluorescence ratio (LAZ 388 cells [4]; [11]): 1.0
- VLA-3 fluorescence ratio (LAZ 388 cells [4]; [11]): 1.0
- VLA-5 fluorescence ratio (LAZ 388 cells [4]; [11]): 1.0
- CD72 fluorescence ratio (LAZ 388 cells [4]; LAZ 388, 10^-7 M MET-ENK, untreated 1.4): 1.7
- CD11b (Mac 1) fluorescence ratio (LAZ 388 cells [4]; LAZ 388, 10^-7 M MET-ENK, untreated 1.5): 1.5
- CD20 fluorescence ratio (LAZ 388 cells [4]; LAZ 388, 10^-7 M MET-ENK, untreated 1.7): 1.7
- VLA-1 fluorescence ratio (LAZ 388 cells [4]; LAZ 388, 10^-7 M MET-ENK, untreated 1.8): 2.0
- CD19 fluorescence ratio (LAZ 388 cells [4]; LAZ 388, 10^-7 M MET-ENK, untreated 8.6): 8.0
- CD22 fluorescence ratio (LAZ 388 cells [4]; [12]): 11.1
- CD29 (VLA-β chain) fluorescence ratio (LAZ 388 cells [4]; [12]): 11.2
- VLA-β; DE9N fluorescence ratio (LAZ 388 cells [4]; LAZ 388, 10^-7 M MET-ENK, untreated 11.5): 11.1
- CD18 (Integrin β chain) fluorescence ratio (LAZ 388 cells [4]; LAZ 388, 10^-7 M MET-ENK, untreated 11.9): 10.1
- CD11a (LF1α) fluorescence ratio (LAZ 388 cells [4]; LAZ 388, 10^-7 M MET-ENK, untreated 12.4): 11.4
- CD54 (ICAM-1) fluorescence ratio (LAZ 388 cells [4]; LAZ 388, 10^-7 M MET-ENK, untreated 18.7): 16.6
- CD58 (LFA-3) fluorescence ratio (LAZ 388 cells [4]; LAZ 388, 10^-7 M MET-ENK, untreated 22.4): 21.8
- CD45 (T200) fluorescence ratio (LAZ 388 cells [4]; LAZ 388, 10^-7 M MET-ENK, untreated 27.4): 27.3
- CD23 fluorescence ratio (LAZ 388 cells [4]; LAZ 388, 10^-7 M MET-ENK, untreated 68.2): 70.7
- CD44 (homing receptor) fluorescence ratio (LAZ 388 cells [4]; LAZ 388, 10^-7 M MET-ENK, untreated 79.0): 84.6
- Bmax, low affinity sites (Jurkat cells): 3.3×10^4 sites/cell and 3.0×10^4 sites/cell
- number of high affinity sites (Jurkat cells): 3.3 pM
- number of low affinity sites (Jurkat cells): 101 pM
- Bmax, low affinity sites (Jurkat cells; listed as methionine enkephalin): 3.0×10^4 sites/cell
- Kd (Jurkat cells; read-out: Kd, high affinity site): 1.36 nM
- Kd (Jurkat cells; read-out: Kd, low affinity site): 318 nM
- cAMP production in NALM 6 cells (NALM 6 cells [5]): enhancement in the production of cAMP
- cAMP production in NALM 6 cells (NALM 6 cells [5]; [10]): potentiates cAMP accumulation
- cAMP (COS (Vector Control); COS (Vector Control), MET-ENK 0.01 nM, naloxone 10 μM, forskolin 0.1 μM, controls 40.2 and 38.8): 31.6 fmoles/cell × 10^3
- effect on cAMP, mock transfected controls (COS (Vector Control); COS transfected with vector alone): no effect on the cAMP produced in mock transfected controls
- human lymphocyte / T cell migration (human T cells): stimulate human lymphocyte migration
- lymphocyte trafficking in vivo ([6]; animals): enhance lymphocyte trafficking
- lymphocyte and macrophage migration into ventricles ([6]; injection into cerebroventricles of rodents): elicited lymphocyte and macrophage migration into the ventricles
- T cell aggregation, rosetting, morphology, adhesion molecules (T cells): enhance T cell aggregation
- lymphocyte exit from popliteal nodes (lymphocytes): stimulated small and blast lymphocytes to exit the node and enter the efferent lymph
- NK cell activity, lymphocyte proliferation, antibody production (NK cells and lymphocytes): diminish NK cell activity, decrease lymphocyte proliferation, and inhibit antibody production

Reference: patent US5753516A, “Screening method for ligands of the EBI-1 receptor” (priority 1995, dated 1998)
